Entries after “also recorded” stand apart in the source; their conditions may differ. Like-named read-outs stand apart in the source and are kept apart here.
Legend:
[1] = tested on: isolated mouse airway smooth muscle cells; assay: Measurement of global [Ca2+]i (fluo-3) in freshly isolated mouse airway smooth muscle cells; assay type: cell-based; details: for effect on chloroquine-induced reversal of the KCl-induced increase in [Ca2+]i: PTX 1 μg/ml 6-8 hours, gallein 20 μM, Anti-βγ 1 μM, U73122, 2-ABP at concentrations of FIG. 5; for chloroquine-induced increase in global [Ca2+]i, % of control: resting cells, PTX 1 μg/ml 6-8 hr, gallein 20 μM 30 min, Anti-βγ 1 μM 1 hr, U73122 3 μM, 2-APB 50 μM; for effect on chloroquine's reduction of the Mch-induced [Ca2+]i increase: 10 μM FPL, single cell level
Description: (§1) The tracheas and bronchi were dissected free from the surface of the connective tissue. The tissue was incubated in the dissociation medium containing papain 30 unit/ml, 1 mM DTT, and 0.5 mg/ml BSA, at 35° C. for 30 min, and then transferred to a dissociation medium containing 3 unit/ml collagenase F and 0.5 mg/mL BSA, and incubated at 35° C. for another 15 min to produce isolated ASM cells. Finally, the tissue was agitated with a fire polished wide-bore glass pipette to release the cells.
Fluorescence images using fluo-3 as a calcium indicator were obtained using a custom-built wide-field digital imaging system. The camera was interfaced to a custom made inverted microscope, and the cells were imaged using either a 20× Nikon 1.3 NA for global [Ca^2+] measurement or a 60× Nikon 1.4 NA oil for Ca^2+ spark measurement. […] The images were acquired at the speed of either 1 Hz for global [Ca^2+] measurement or 50 Hz for Ca^2+ spark measurement. Subsequent image processing and analysis was performed off line using a custom-designed software package, running on a Linux/PC workstation. [Ca^2+]i was represented as ΔF/F0*100 with F calculated by integrating fluo-3 over entire cells for global [Ca^2+], or just the value at the brightest pixel (i.e., epicenter pixel) for Ca^2+ sparks.
All chemicals, except fluo-3 (Invitrogen Co, San Diego, Calif., USA), gallein (Tocris Bioscience, Bristol, United Kingdom), and Anti-βγ blocking peptide (AnaSpec, Fremont, Calif., USA), were purchased from Sigma-Aldrich Co. (St. Louis, Mo., USA). For single cell studies, agonists and antagonists were applied locally to cells via a picospritzer at a constant pressure, so that the duration of its action and concentration could be controlled easily.

[2] = tested on: human intrapulmonary bronchi; assay: Force measurement in human intrapulmonary airways; details: for relaxation of smooth muscle from airways: human; for reversal (relaxation) of KCl-induced tension: KCl (60 mM), chloroquine, denatonium 1 mM
Source text: Trachea and bronchi were isolated and cut into rings (4 mm in length). The rings were mounted on a wire myograph chamber (Danish Myo Technology, Aarhus, Denmark), and a PowerLab recording device (AD Instruments) was used to record isometric tension. […] Human lung tissue was obtained (with informed consent) from patients undergoing surgery (lobectomy) for lung cancer at the Department of Surgery and the Department of Pathology at the Univ. of Massachusetts Memorial Med Ctr (Worcester, Mass.). The tumors were identified as nonsmall cell carcinoma (adenocarcinoma, squamous cell carcinoma). Intrapulmonary airways were dissected out and cleaned free of the connective tissues. These airways were either cut into the rings ([…]) for force measurements the same as for mouse airway tissues, or digested with the same enzymes, dissociation medium and isolation procedure as for single mouse ASM cells. The experimental protocols on human tissues were approved by the Committee for Protection of Human Subjects in Research at the University of Massachusetts Medical School (Protocol 13590 to R.Z).

[3] = tested on: pulmonary artery from mouse; assay: Relaxation of smooth muscle from mouse pulmonary artery
[4] = tested on: isolated smooth muscle cells from mouse internal anal sphincter; assay: [Ca2+]i in isolated smooth muscle cells from mouse internal anal sphincter; assay type: cell-based; details: CDCA 100 μM; chloroquine 1 mM; denatonium 1 mM
Source text: Fluorescence images using fluo-3 as a calcium indicator were obtained using a custom-built wide-field digital imaging system. The camera was interfaced to a custom made inverted microscope, and the cells were imaged using either a 20× Nikon 1.3 NA for global [Ca^2+] measurement or a 60× Nikon 1.4 NA oil for Ca^2+ spark measurement. The 488 nm line of an Argon Ion laser provided fluorescence excitation, with a shutter to control exposure duration, and emission of the Ca^2+ indicator was monitored at wavelengths >500 nm. The images were acquired at the speed of either 1 Hz for global [Ca^2+] measurement or 50 Hz for Ca^2+ spark measurement. Subsequent image processing and analysis was performed off line using a custom-designed software package, running on a Linux/PC workstation. [Ca^2+]i was represented as ΔF/F0*100 with F calculated by integrating fluo-3 over entire cells for global [Ca^2+], or just the value at the brightest pixel (i.e., epicenter pixel) for Ca^2+ sparks.

mouse urethra = assay: Mouse urethral contraction induced by contractile agonists; details: for relaxation of smooth muscle from urethra: mouse
Source text: […] were pretreated with bitter tastants, and then stimulated with contractile agonists. Contractile agonists alone were used as the control.

[5] = tested on: mouse internal anal sphincter; assay: Spontaneous tone of mouse internal anal sphincter; details: for relaxation of smooth muscle from internal anal sphincter: mouse
Source text: The spontaneous tone contributes about 70% of the basal tonus that maintains fecal continence in human and animals.

human pulmonary arteries = assay: Relaxation of human pulmonary arteries pre-contracted by KCl; details: for relaxation of smooth muscle from pulmonary artery: human; for relaxation of human pulmonary arteries: pre-contracted by KCl
Source text: Human specimen were provided by Univ. Mass. Memorial Medical Center.

[6] = tested on: mouse airways (trachea and bronchi rings); assay: Mouse airway smooth muscle contraction bioassay (isometric tension); details: for relaxation of smooth muscle from airways: mouse; for reversal (relaxation) of KCl-induced tension: 60 mM KCl, chloroquine, denatonium 1 mM
Source text: C57/BL6 mice at 7-12 weeks of age were sacrificed and the entire respiratory trees were rapidly removed and immersed in Krebs physiologic solution containing (in mM) 118.07 NaCl, 4.69 KCl, 2.52 CaCl2, 1.16 MgSO4, 1.01 NaH2PO4, 25 NaHCO3, and 11.10 glucose. Trachea and bronchi were isolated and cut into rings (4 mm in length). The rings were mounted on a wire myograph chamber (Danish Myo Technology, Aarhus, Denmark), and a PowerLab recording device (AD Instruments) was used to record isometric tension. The ring preparations with zero tension were immersed in 5 ml of Krebs physiologic solution, bubbled with 95% 02 and 5% CO2 at 37° C. The basal tones were set at the level of approximately 2 mN.

Mouse ASM cells = assay: Measurement of cell shortening in mouse ASM cells; assay type: cell-based; details: Mch 100 μM; n=21
Description: as §1, with “the cells. Myocytes were placed into a recording chamber superfused with the bath solution for patch clamp experiments at room temperature. Cells loaded with Fluo-3 were imaged using a custom-built wide-field digital imaging system and their lengths were determined using custom software to manually trace down the center of the cell.” for “the cells.”

mouse airway strips = details: all at 1 mM; [Ca2+]i clamped; α-toxin permeabilized
[7] = pretreatment, Chloro 1 mM, CDCA 100 μM

NCCOB(c1ccccc1)c1ccccc1 [2-APB, 2-Aminoethoxydiphenyl borate]
effect on chloroquine-induced reversal of the KCl-induced increase in [Ca2+]i [1]: failed to alter
chloroquine-induced increase in global [Ca2+]i, % of control [1]: −10.5±7.3%

C[C@H](CCC(=O)O)[C@H]1CC[C@H]2[C@@H]3[C@H](O)C[C@@H]4C[C@H](O)CC[C@]4(C)[C@H]3CC[C@]12C [CDCA, chenodeoxycholic acid]
relaxation of smooth muscle from airways [2]: fully relax
relaxation of smooth muscle from pulmonary artery [3]: fully relax
effect on the increase in [Ca2+]i induced by 60 mM KCl [4]: reversibly inhibited
relaxation of smooth muscle from urethra (mouse urethra): fully relax
effect on 10 μM methacholine-induced contraction (mouse urethra; pretreatment, CDCA 100 μM): inhibited
effect on 60 mM KCl-induced contraction (mouse urethra; [7]): blocked
effect on alpha1-agonist phenylephrine-induced contraction (mouse urethra; [7]): inhibited
effect on spontaneous tone [5]: reversed totally
relaxation of smooth muscle from internal anal sphincter [5]: fully relax
relaxation of smooth muscle from pulmonary artery (human pulmonary arteries): fully relax
relaxation of smooth muscle from airways [6]: fully relax

C[C@H](CCC(=O)O)[C@H]1CC[C@H]2[C@@H]3CC[C@@H]4C[C@H](O)CC[C@]4(C)[C@H]3C[C@H](O)[C@]12C [DCA, deoxycholic acid]
relaxation of smooth muscle from airways [2]: fully relax
reversal (relaxation) of KCl-induced tension ([2]; human airways): fully relaxed
relaxation of smooth muscle from pulmonary artery [3]: fully relax
relaxation of smooth muscle from urethra (mouse urethra): fully relax
relaxation of smooth muscle from internal anal sphincter [5]: fully relax
relaxation of smooth muscle from pulmonary artery (human pulmonary arteries): fully relax
relaxation of human pulmonary arteries (human pulmonary arteries): markedly relaxed
relaxation of smooth muscle from airways [6]: fully relax

COC(=O)c1c(C)[nH]c(C)c1C(=O)c1ccccc1Cc1ccccc1 [FPL, FPL 64176]
effect on chloroquine's reduction of [Ca2+]i in cells stimulated by KCl [1]: prevented
effect on chloroquine's reduction of the Mch-induced [Ca2+]i increase [1]: prevent chloroquine from reducing
effect on chloroquine's reduction of the Mch-induced [Ca2+]i increase ([1]; listed as FPL 64176): prevented chloro from reversing
effect on chloroquine's reduction of [Ca2+]i in cells stimulated by KCl ([1]; listed as FPL 64176): inhibited
effect on chloroquine-induced relaxation in ASM pre-contracted by KCl ([6]; KCl 60 mM): dose-dependently reversed; also recorded: dose-dependently inhibited
effect on chloroquine-induced relaxation of Mch precontracted airways ([6]; tissue level): prevent chloroquine from relaxing; also recorded: dose-dependently reversed

[Cl-].[K+] [KCl]
KCl-induced increase in ΔF/F0 ([1]; KCl 60 mM, without diltiazem, n=9): 122±19%

CC(=O)OC(C)C[N+](C)(C)C (stereo not shown) [Mch, methacholine]
cell shortening (Mouse ASM cells): 49±8%
increase in fluo-3 fluorescence (ΔF/F0) ([1]; Mch 100 μM): 162±26%
contraction (tension) of mouse airways at rest ([6]; 1 mM chloro, 100 μM Mch): robust contraction
tension generated in Ca2+ free medium, % of that in the presence of extracellular Ca2+ ([6]; Ca2+ free medium): less than 20%
contraction (force) of mouse airways at rest ([6]; chloroquine 10 μM-1 mM, Mch 0.1-10 μM): induced contraction markedly

COc1ccc2c(c1)CC[C@@H]1[C@@H]2CC[C@]2(C)[C@@H](NCCCCCCN3C(=O)C=CC3=O)CC[C@@H]12 [U73122]
effect on chloroquine-induced reversal of the KCl-induced increase in [Ca2+]i [1]: failed to alter
chloroquine-induced increase in global [Ca2+]i, % of control [1]: 18.0±5.5%

CC[N+](CC)(CC(=O)Nc1c(C)cccc1C)Cc1ccccc1 [denatonium]
reversal (relaxation) of KCl-induced tension ([2]; human airways): fully reversed
effect on the increase in [Ca2+]i induced by 60 mM KCl [4]: did not affect
relaxation of ASM at fixed [Ca2+]i (mouse airway strips): failed to relax
effect on spontaneous tone [5]: enhanced
relaxation of human pulmonary arteries (human pulmonary arteries): failed to exert any effect
reversal (relaxation) of KCl-induced tension ([6]; mouse airways): fully reversed; also recorded: relaxed

COc1ccc([C@@H]2Sc3ccccc3N(CCN(C)C)C(=O)[C@@H]2OC(C)=O)cc1 [diltiazem]
reversal of Mch-induced airway force generation ([2]; human airways, 10 μM Mch): dose-dependently reversed
reversal (relaxation) of KCl-induced tension ([2]; human airways): relaxed
KCl-induced increase in ΔF/F0 after diltiazem pretreatment ([1]; 10 μM diltiazem pretreatment, KCl 60 mM, n=9): 16.8±10%
effect on KCl (60 mM)-induced increase in [Ca2+]i ([1]; prior application of diltiazem 100 μM): blocked
reversal of the Mch-induced increase in [Ca2+] ([1]; single isolated mouse ASM cells, n=12): 90.2±2.9%
reversal of the KCl-induced contraction ([6]; KCl 60 mM, n=6): 93.1±4.8%
reversal of Mch-induced airway force generation ([6]; mouse airways): dose-dependently reversed
reversal (relaxation) of KCl-induced tension ([6]; mouse airways): relaxed

O=C1OC2(c3ccccc31)c1ccc(O)c(O)c1Oc1c2ccc(O)c1O [gallein]
effect on chloroquine-induced reversal of the KCl-induced increase in [Ca2+]i [1]: prevented
chloroquine-induced increase in global [Ca2+]i, % of control [1]: 19.9±8.5%

MPS-phosducin-like protein C terminus [Anti-βγ]
effect on chloroquine-induced reversal of the KCl-induced increase in [Ca2+]i [1]: prevented
chloroquine-induced increase in global [Ca2+]i, % of control [1]: 18.4±4.8%

pertussis toxin [PTX]
effect on chloroquine-induced reversal of the KCl-induced increase in [Ca2+]i [1]: prevented
chloroquine-induced increase in global [Ca2+]i, % of control [1]: 21.1±8.6%

Reference: patent US20150202212A1, “METHODS FOR IDENTIFYING AGENTS FOR TREATING SMOOTH MUSCLE DISORDERS AND COMPOSITIONS THEREOF” (University of Massachusetts Medical School, priority 2012, published 2015)
